According to patent publication US12116564B2, “Cells expressing recombinant growth factor receptors” (INSTIL BIO (UK) LIMITED, priority 2015, dated 2024):

T1: TpoR F104S (Homo sapiens, UniProt P40238, F104S)
T1 sequence (P40238 26-635 F104S): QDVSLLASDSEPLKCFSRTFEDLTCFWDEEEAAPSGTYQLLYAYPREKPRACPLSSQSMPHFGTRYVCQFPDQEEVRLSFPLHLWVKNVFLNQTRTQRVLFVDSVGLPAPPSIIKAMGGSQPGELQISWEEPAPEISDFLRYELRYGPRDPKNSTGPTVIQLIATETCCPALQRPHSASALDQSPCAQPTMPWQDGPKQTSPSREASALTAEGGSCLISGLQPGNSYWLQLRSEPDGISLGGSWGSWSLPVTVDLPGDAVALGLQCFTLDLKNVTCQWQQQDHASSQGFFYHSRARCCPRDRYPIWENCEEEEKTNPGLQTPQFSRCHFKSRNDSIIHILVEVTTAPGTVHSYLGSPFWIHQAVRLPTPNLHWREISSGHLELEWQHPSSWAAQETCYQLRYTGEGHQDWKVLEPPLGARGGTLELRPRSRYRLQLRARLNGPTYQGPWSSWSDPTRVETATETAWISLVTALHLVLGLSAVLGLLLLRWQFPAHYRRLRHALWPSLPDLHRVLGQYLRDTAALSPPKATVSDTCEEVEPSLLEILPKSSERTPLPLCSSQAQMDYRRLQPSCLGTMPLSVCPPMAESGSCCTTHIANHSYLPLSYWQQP

B1: Tpo: recombinant human Tpo (Miltenyi Biotec), native ligand of the thrombopoietin receptor (protein)
chain: SPAPPACDLRVLSKLLRDSHVLHSRLSQCPEVHPLPTPVLLPAVDFSLGEWKTQMEETKAQDILGAVTLLLEGVMAARGQLGPTCLSSLLGQLSGQVRLLLGALQSLLGTQLPPQGRTTAHKDPNAIFLSFQHLLRGKVRFLMLVGGSTLCVRRAPPTTAVPSRTSLVLTLNEL

Key:
[1] = 73 healthy volunteers, higher doses; cited from earlier work
[2] = tested on: melanoma TIL transduced with WT TpoR; assay: Enrichment of TpoR+ cells in WT TpoR transduced melanoma tumour infiltrating lymphocytes; format: cell-based, human; settings: for TpoR+ cells after enrichment: from 65% TpoR+
Procedure: FIG. 12—Analysis of WT TpoR activity in Melanoma Tumour Infiltrating Lymphocytes. Tumour infiltrating lymphocytes (TIL) established from a cutaneous melanoma lesion were lentivirally transduced with the WT TpoR rGFR. The TIL were incubated in the presence of 200 IU/ml IL2 or the indicated concentrations of Tpo or Eltrombopag. At days 2 and 5 cells were removed, stained with PE conjugated anti-CD110 antibodies and analysed using a MACSQuant analyser.
Next we aimed to determine whether the WT TpoR was functionally active in Tumour Infiltrating Lymphocytes (TIL). It was possible that the high doses of IL2 used to generate TIL cultures could make them more dependent on IL2 for subsequent growth. To this end we added lentiviral supernatants to melanoma TIL cultures. Cells were transduced to 65% (FIG. 12). The TILs were cultured in the presence of 200 IU/ml IL-2, or Eltrombopag or Tpo. Cells were analysed for TpoR expression at days 2 and 5. […] In contrast there was no enrichment of TpoR+ cells in the presence of IL2 supporting the notion that this is driven by signals through the TpoR.

[3] = tested on: primary human T-cells harbouring the WT TpoR; assay: Enrichment of TpoR+ cells (anti-CD110 flow cytometry), WT TpoR T-cells diluted to 20% transduction; format: cell-based; settings: for TpoR positive cells after enrichment: start 20% transduced, up to nine days
Procedure: (§1) FIG. 6—Enrichment kinetics of modular T-cell growth signal receptor engineered T-cells to varying concentrations of IL-2, Eltrombopag (Elt) or thrombopoietin (Tpo). Transduced primary human T-cells were diluted with non-transduced cells to a 20% transduction level. Cells were incubated with the indicated concentrations of each drug and the enrichment of each population established at the indicated time points by staining cells with anti-CD110-PE antibodies. Following expansion cells were washed excessively to remove any exogenous IL2 and plated into 96-well U-bottom plates. Cells were supplemented with IL2 (Proleukin), recombinant human Tpo (Miltenyi Biotec) or Eltrombopag (Stratech Scientific, Suffolk, UK). At various time points thereafter cells were either stained with a 1:400 dilution of eFlor-450 fixable viability dye (eBioscience, UK) and counted directly from the wells using a MACSQuant Cytometer, or were stained with viability dye plus phycoerythrin conjugated anti-CD110 antibodies (Miltenyi Biotec, UK) and analysed using a MACSQuant cytomter. Cell viability and/or transduction level was then analysed using MACSQuantify software (Miltenyi Biotec, UK). Additional cells were diluted with non-transduced cells to achieve a population with 20% transduction efficiency. […] After three, six and nine days the cells were stained with anti-CD110 (TpoR) antibodies and analysed by flow cytometry.

[4] = tested on: WT TpoR transduced primary human T-cells; format: cell-based; settings: for response in relative increase of cell number as concentration increases: varying concentrations, three and five days
Procedure: Transduced primary human T-cells were incubated with the indicated concentrations of each drug and cells counted after three and five days
Following expansion cells were washed excessively to remove any exogenous IL2 and plated into 96-well U-bottom plates. Cells were supplemented with IL2 (Proleukin), recombinant human Tpo (Miltenyi Biotec) or Eltrombopag (Stratech Scientific, Suffolk, UK). At various time points thereafter cells were either stained with a 1:400 dilution of eFlor-450 fixable viability dye (eBioscience, UK) and counted directly from the wells using a MACSQuant Cytometer, or were stained with viability dye plus phycoerythrin conjugated anti-CD110 antibodies (Miltenyi Biotec, UK) and analysed using a MACSQuant cytomter. Cell viability and/or transduction level was then analysed using MACSQuantify software (Miltenyi Biotec, UK).
After three and five days the cells were stained with EFlor-450 Live/dead fixable viability dye and the cells in each well counted by flow cytometry.

[5] = tested on: primary human T-cells harbouring the mt TpoR; assay: Enrichment of TpoR+ cells (anti-CD110 flow cytometry), mt (truncated) TpoR T-cells diluted to 20% transduction; format: cell-based; settings: for TpoR positive cells after enrichment: start 20% transduced, up to nine days
Procedure: as §1

[6] = tested on: Ba/F3 cells transduced with F104S TpoR variant; assay: Enrichment of transduced Ba/F3 cells, F104S TpoR; format: cell-based, murine; settings: 0.5 μM Eltrombopag or 1.0 μM Tpo; days 3, 5 and 7
Procedure: (§2) FIG. 10—Analysis of rGFR variants in Ba/F3 cells. The IL3 dependent cell line Ba/F3 was transduced with the indicated rGFR variants and incubated in the presence of 1 μM Tpo, 0.5 μM Eltrombopag or 0.5 ng/ml IL3. Cells were taken at days 3, 5 and 7 stained with PE conjugated anti-CD110 antibodies and analysed using a MACSQuant analyser.
(§3) To determine whether the new variants generated were functionally active we transduced the IL3 dependent cell line Ba/F3 and incubated the cells with either IL-3, 0.5 μM Eltrombopag or 1.0 μM Tpo and measured the proportion of cells expressing the indicated TpoR at days 3, 5 and 7.

[7] = tested on: Ba/F3 cells transduced with TpoR-HGHR variant; assay: Enrichment of transduced Ba/F3 cells, TpoR-HGHR; format: cell-based, murine; settings: 0.5 μM Eltrombopag or 1.0 μM Tpo; days 3, 5 and 7
Procedure: as §2, §3

[8] = tested on: Ba/F3 cells transduced with TpoR-PrIR variant; assay: Enrichment of transduced Ba/F3 cells, TpoR-PrIR; format: cell-based, murine; settings: 0.5 μM Eltrombopag or 1.0 μM Tpo; days 3, 5 and 7; compared with the other variants
Procedure: as §2, §3

[9] = tested on: Ba/F3 cells transduced with WT TpoR; assay: Enrichment of transduced Ba/F3 cells, WT TpoR; format: cell-based, murine; settings: 0.5 μM Eltrombopag or 1.0 μM Tpo; days 3, 5 and 7
Procedure: as §2, §3

TpoR F104S = molecular target: T1, TpoR F104S; settings: Fox et al 2010; cited from earlier work

Molecule | tolerability [1] | TpoR+ cells after enrichment ([2]; high (1.0 μM) Eltrombopag) | TpoR+ cells after enrichment ([2]; low (0.1 μM) Eltrombopag) | TpoR positive cells after enrichment ([3]; 0.5 μM Eltrombopag) | concentration at which responses (relative increase of cell number) are maximal ([4]; 94% transduced, 5×10^4 cells/well, counted after three and five days) | toxicity to the T-cells ([4]; concentrations above around 0.1 μM) | TpoR positive cells after enrichment ([5]; 0.5 μM Eltrombopag) | enrichment of TpoR+ cells ([2]; 200 IU/ml IL-2) | enrichment of TpoR positive cells over time ([3]; 100 IU/ml IL-2 alone) | response in relative increase of cell number as concentration increases [4] | enrichment of TpoR positive cells over time ([5]; 100 IU/ml IL-2 alone) | enrichment of transduced cells [6] | functional activity (enrichment of transduced cells) [7] | enrichment of TpoR+ T-cells ([2]; high (1 μM) Tpo) | functional activity (enrichment of transduced cells) [8] | enrichment of transduced cells [9] | effect of the F104S extracellular point mutation on responsiveness to the ligand (TpoR F104S) | TpoR positive cells after enrichment ([3]; 10.0 μM Tpo) | maximal response compared with Eltrombopag or IL-2 ([4]; possibly optimal concentrations not used) | TpoR positive cells after enrichment ([5]; 10.0 μM Tpo)
CC1=NN(c2ccc(C)c(C)c2)C(=O)/C1=N\Nc1cccc(-c2cccc(C(=O)O)c2)c1O [Eltrombopag] | without tolerability problems | 90% | 89% | 83.5% | around 0.1 μM | becoming toxic | 66.6% | – | – | – | – | – | – | – | – | – | – | – | – | –
IL-2: IL2 (Proleukin), cytokine normally required for optimal T-cell growth | – | – | – | – | – | – | – | no enrichment | did not become enriched over time | dose dependent responses | did not become enriched over time | – | – | – | – | – | – | – | – | –
B1 | – | – | – | – | – | – | – | – | – | dose dependent responses | – | much reduced activity | functional activity | able to induce enrichment | less robust responses | able to support the enrichment of transduced cells | prevent responsiveness | 87.5% | did not see maximal responses to Tpo comparable to those seen with Eltrombopag or IL-2 | 77.9%
